Test results: patent US20130254944A1, “Herbicide Tolerant Soybeans and Methods of Use” (PIONEER HI BRED INTERNATIONAL INC, priority 2012, published 2013)

Experiments:
Type in all cases: in vivo
[1] = system: soybean having both the Als1 and Als2 mutations; experiment: Greenhouse postemergence test of ALS-inhibiting herbicides and isobole analysis, soybean with Als1 and Als2 mutations; settings: for phytotoxic response (in words), Als1+Als2: rates 0.5x to 8x the label rate
Method: (§1) Soybean lines having wild type als1 & 2 genes, the Als1 mutation, the Als2 mutation, or both the Als1 and Als2 mutations were evaluated for their response to various herbicides. Two seeds from each line were planted into 4-inch pots containing Redi-Earth potting mix (Sun Gro Horticulture Canada Ltd. 52130 RR65, Seba Beach, Alberta TOE 2B0), with two replications planted for each treatment. Pots were placed in flats at 15 pots/flat, and the resulting plants were grown in a greenhouse environment supplemented with lighting (16 hr photoperiod) for the duration of the test. Selected herbicides representing the mode of action that inhibits the acetolactate synthase enzyme, also known as the acetohydroxyacid synthase enzyme, were applied postemergence to soybean when soybean plants were at the V2 growth stage, which is the stage at which the first two trifoliolate leaves were expanded.
(§2) Eleven active ingredients representing the five chemical families with herbicidal activity on the acetolactate synthase enzyme were tested. These herbicides can cause a phytotoxic response in wild type soybean plants. The five chemical families tested were sulfonylaminocarbonyltriazolinone (also known as triazolinone), imidazolinone, sulfonylurea, pyrimidinylthiobenzoate, and triazolopyrimidine. Application rates ranged from 0.5 times to eight times the currently labeled application rate for each active ingredient with spray application volume at 30 gallons/acre. The application rates tested were 0.5×, 1×, 2×, 4× and 8× the label rate for each herbicide. Herbicidal active ingredients were applied as formulated materials dispersed in water containing 0.25% nonionic surfactant (Trend® 90).
(§3) The test was evaluated by visually scoring plant phenotype 14 days after the herbicides were applied. Controls consisted of soybean plants of the same variety that received no herbicide treatments for each of all the varieties tested. Soybean response was recorded on a zero to 100 visual scale in which zero is no phytotoxic response and 100 is plant death fourteen days after the herbicides were applied. Soybean response (percent phytotoxicity) to postemergence applications of herbicides inhibiting the acetolactate synthase enzyme test results are shown in Table 1.
(§4) Results in Table 1 were evaluated using the isobole method for analyzing interactions. […] Here the biologically active agents that are being assessed for interaction (synergy) are gene mutations in soybean. The effectiveness of the genes in providing improved tolerance to ALS-inhibiting herbicides was assessed by applying increasing doses of herbicides to each soybean line with its mutation(s).
(§5) An isobole reduces a dose response surface in three dimensional space to a two dimensional plot by fixing a defined response level (e.g., 50% response). The isobole plot is a graph in the Cartesian plane with a straight line connecting the isoeffective rates of the individual components of the combination. This straight line represents expected responses for zero interactive combinations. The isoeffective rate used to create the isobole is often the EC50, the rate estimated to elicit 50% response, but other ECx values can be used. Since the isobole method is based on the potency of the components of the combination, an experimental design testing a range of rates expected to elicit the full range of responses (e.g., 0 to maximum response) is best. (Ferry et al. (2005) 2005 Conference on Applied Statistics in Agriculture Proceedings pp 33-50, Manhattan, Kans., Kansas State Univ.; Green and Streibig (1993) Herbicide Mixtures, pp 117-134 in Herbicide Bioassays, Streibig and Hudsk Eds, CRC, Boca Raton, Fla.).
(§6) Loglogistic dose response curves were fit to percent phytotoxicity response data using log 10 of dose (McCullagh and Nelder (1989) Generalized Linear Models, Chapman & Hall, London). Curves were fit using the logit link with normal errors. […]

wild type soybean = experiment: Greenhouse postemergence test of ALS-inhibiting herbicides, wild type soybean
Method: as §1, §2, §3

[2] = system: soybean having the Als2 mutation; experiment: Greenhouse postemergence test of ALS-inhibiting herbicides, soybean with Als2 mutation; settings: for phytotoxic response (in words), Als2: rates 0.5x to 8x the label rate
Method: as §1, §2, §3, §4, §5, §6

[3] = system: soybean having the Als1 mutation; experiment: Greenhouse postemergence test of ALS-inhibiting herbicides, soybean with Als1 mutation; settings: for phytotoxic response (in words), Als1: rates 0.5x to 8x the label rate
Method: as §1, §2, §3, §4, §5, §6

[4] = 8.75 g ai/ha postemergence at V2, scored 14 days after application
[5] = 17.5 g ai/ha postemergence at V2, scored 14 days after application
[6] = 35 g ai/ha postemergence at V2, scored 14 days after application
[7] = 70 g ai/ha postemergence at V2, scored 14 days after application
[8] = 140 g ai/ha postemergence at V2, scored 14 days after application

Compound	Soybean response (percent phytotoxicity), Als1 + Als2 [1, 4] [%]	Soybean response (percent phytotoxicity), Als1 + Als2 [1, 5] [%]	Soybean response (percent phytotoxicity), Als1 + Als2 [1, 6] [%]	Soybean response (percent phytotoxicity), Als1 + Als2 [1, 7] [%]	Soybean response (percent phytotoxicity), Als1 + Als2 [1, 8] [%]	phytotoxic response (in words), Als1+Als2 [1]	Soybean response (percent phytotoxicity), Wild type (wild type soybean; [4]) [%]	Soybean response (percent phytotoxicity), Wild type (wild type soybean; [5]) [%]	Soybean response (percent phytotoxicity), Wild type (wild type soybean; [6]) [%]	Soybean response (percent phytotoxicity), Wild type (wild type soybean; [7]) [%]	Soybean response (percent phytotoxicity), Wild type (wild type soybean; [8]) [%]	Soybean response (percent phytotoxicity), Als2 [2, 4] [%]	Soybean response (percent phytotoxicity), Als2 [2, 5] [%]	Soybean response (percent phytotoxicity), Als2 [2, 6] [%]	Soybean response (percent phytotoxicity), Als2 [2, 7] [%]	Soybean response (percent phytotoxicity), Als2 [2, 8] [%]	phytotoxic response (in words), Als2 [2]	Soybean response (percent phytotoxicity), Als1 [3, 4] [%]	Soybean response (percent phytotoxicity), Als1 [3, 5] [%]	Soybean response (percent phytotoxicity), Als1 [3, 6] [%]	further results
COc1cc(Cl)nc(NC(=O)NS(=O)(=O)c2ccccc2C(=O)O)n1 [Chlorimuron]	0	0	0	0	0	did not cause any phytotoxic response	0	5	20	35	45	0	0	0	0	0	did not cause any phytotoxic response	0	0	0	Soybean response (percent phytotoxicity), Als1 [3, 7]: 0%; Soybean response (percent phytotoxicity), Als1 [3, 8]: 0%; phytotoxic response (in words), Als1 [3]: did not cause any phytotoxic response
CCOc1nc(F)cc2nc(S(=O)(=O)Nc3c(Cl)cccc3C(=O)OC)nn12 [Cloransulam methyl]	0	0	0	0	0	did not cause any phytotoxic response	0	0	0	5	15	0	0	0	0	0	did not cause any phytotoxic response	0	0	0	Soybean response (percent phytotoxicity), Als1 [3, 7]: 0%; Soybean response (percent phytotoxicity), Als1 [3, 8]: 0%; phytotoxic response (in words), Als1 [3]: did not cause any phytotoxic response
